The values below come from patent publication US12582641B2, “Sulfur-containing compound based on glutarimide skeleton and application thereof” (SHANGHAITECH UNIVERSITY, priority 2019, dated 2026).

Structures are written as SMILES.

The test system of this assay is MM.1S cells. Kind of assay: Proliferation inhibition (IC50) in MM.1S cells, cell viability assay. The note with it: Homo sapiens, MM1.S, 72 h, read-out: IC50 (nM), proliferation inhibitory activity of MM.1S cells (half inhibitory concentration).
With `O=C1CCC(N2Cc3c(SCCCCCCCCO)cccc3C2=O)C(=O)N1` (stereo not drawn) [SIAIS264006, 3-(4-((8-hydroxyoctyl)thio)-1-oxoisoindolin-2-yl)piperidine-2,6-dione], the IC50 stood at 0.83 nM.
As for `O=C1CCC(N2Cc3c(SCCCCCCCCNc4ncnc5ccccc45)cccc3C2=O)C(=O)N1` (stereo not drawn) [SIAIS264011, 3-(1-oxo-4-((8-(quinazolin-4-ylamino)octyl)thio)isoindolin-2-yl)piperidine-2,6-dione], the figure is 0.34 nM.
As for `O=C1CCC(N2Cc3c(SCCCCCCCCN4CCCCC4=O)cccc3C2=O)C(=O)N1` (stereo not drawn) [SIAIS264019, 3-(1-oxo-4-((8-(2-oxopiperidin-1-yl)octyl)thio)isoindolin-2-yl)piperidine-2,6-dione], the IC50 turned out to be 0.13 nM.
Regarding `O=C1CCC(N2Cc3c(SCCCCCCCN4CCCCC4=O)cccc3C2=O)C(=O)N1` (stereo not drawn) [SIAIS264042, 3-(1-oxo-4-((7-(2-oxopiperidin-1-yl)heptyl)thio)isoindolin-2-yl)piperidine-2,6-dione], the IC50 stood at 0.051 nM.
Take `Cc1ccc(NC(=O)NCCSc2cccc3c2CN(C2CCC(=O)NC2=O)C3=O)cc1Cl` (stereo not drawn) [SIAIS269012, 1-(3-chloro-4-methylphenyl)-3-(2-((2-(2,6-dioxopiperidin-3-yl)-1-oxoisoindolin-4-yl)thio)ethyl)urea]: the IC50 turned out to be 3.79 nM.
The figure for `Cc1ccc(NC(=O)NCCCCCCCSc2cccc3c2CN(C2CCC(=O)NC2=O)C3=O)cc1Cl` (stereo not drawn) [SIAIS269068, 1-(3-chloro-4-methylphenyl)-3-(7-((2-(2,6-dioxopiperidin-3-yl)-1-oxoisoindolin-4-yl)thio)heptyl)urea] is 0.901 nM; for `Cc1ccc(NC(=O)NCCCCCCCCSc2cccc3c2CN(C2CCC(=O)NC2=O)C3=O)cc1Cl` (stereo not drawn) [SIAIS269072, 1-(3-chloro-4-methylphenyl)-3-(8-((2-(2,6-dioxopiperidin-3-yl)-1-oxoisoindolin-4-yl)thio)octyl)urea] it is 0.468 nM; for `Cc1ccc(NC(=O)NCCCCSc2cccc3c2CN(C2CCC(=O)NC2=O)C3=O)cc1Cl` (stereo not drawn) [SIAIS269095, 1-(3-chloro-4-methylphenyl)-3-(4-((2-(2,6-dioxopiperidin-3-yl)-1-oxoisoindolin-4-yl)thio)butyl)urea] it is 0.334 nM.
Turning to `O=C1CCC(N2Cc3c(SCCCCCCCOC4C5CC6CC(C5)CC4C6)cccc3C2=O)C(=O)N1` (stereo not drawn) [SIAIS269159, 3-(4-((7-(adamantan-2-yloxy)heptyl)thio)-1-oxoisoindolin-2-yl)piperidine-2,6-dione], the IC50 stood at 0.068 nM.
The figure for `O=C1CCC(N2Cc3cc(SCCCCCCCNC45CC6CC(CC(C6)C4)C5)ccc3C2=O)C(=O)N1` (stereo not drawn) [SIAIS271167, 3-(5-((7-((adamantan-1-yl)amino)heptyl)thio)-1-oxoisoindolin-2-yl)piperidine-2,6-dione] is 164 nM; for `CN(CCCCNC(=O)CSc1cccc2c1CN(C1CCC(=O)NC1=O)C2=O)C12CC3CC(CC(C3)C1)C2` (stereo not drawn) [SIAIS287105, N-(4-(adamantan-1-yl(methyl)amino)butyl)-2-((2-(2,6-dioxopiperidin-3-yl)-1-oxoisoindolin-4-yl)thio)acetamide] it is 5.01 nM; for `O=C1CCC(N2Cc3c(SCc4ccc(CN5CCCCC5)o4)cccc3C2=O)C(=O)N1` (stereo not drawn) [SIAIS313123, 3-(1-oxo-4-(((5-(piperidin-1-ylmethyl)furan-2-yl)methyl)thio)isoindolin-2-yl)piperidine-2,6-dione] it is 2.29 ± 0.95 nM.
The figure for `O=C1CCC(N2Cc3c(SCc4ccc(CN5CCOCC5)o4)cccc3C2=O)C(=O)N1` (stereo not drawn) [SIAIS313126, 3-(4-(((5-(morpholinomethyl)furan-2-yl)methyl)thio)-1-oxoisoindolin-2-yl)piperidine-2,6-dione] is 2.97 ± 0.79 nM; for `C[C@H](NCc1ccc(CSc2cccc3c2CN(C2CCC(=O)NC2=O)C3=O)o1)C1CC1` (stereo partly drawn) [SIAIS313129, 3-(4-(((5-((((S)-1-cyclopropylethyl)amino)methyl)furan-2-yl)methyl)thio)-1-oxoisoindolin-2-yl)piperidine-2,6-dione] it is 0.97 ± 0.55 nM.
For the compound `O=C1CCC(N2Cc3c(SCc4ccc(CN5CCCCCC5)o4)cccc3C2=O)C(=O)N1` (stereo not drawn) [SIAIS313135, 3-(4-(((5-(azepan-1-ylmethyl)furan-2-yl)methyl)thio)-1-oxoisoindolin-2-yl)piperidine-2,6-dione], the IC50 turned out to be 2.62 ± 0.94 nM.
The figure for `O=C1CCC(N2Cc3c(SCc4ccc(CNC5CCCC5)o4)cccc3C2=O)C(=O)N1` (stereo not drawn) [SIAIS313148, 3-(4-(((5-((cyclopentylamino)methyl)furan-2-yl)methyl)thio)-1-oxoisoindolin-2-yl)piperidine-2,6-dione] is 0.95 ± 0.45 nM; for `O=C1CCC(N2Cc3c(SCc4ccc(CNCC5CCCCO5)o4)cccc3C2=O)C(=O)N1` (stereo not drawn) [SIAIS313149, 3-(1-oxo-4-(((5-((((tetrahydro-2H-pyran-2-yl)methyl)amino)methyl)furan-2-yl)methyl)thio)isoindolin-2-yl)piperidine-2,6-dione] it is 1.3 ± 0.96 nM.
Regarding `O=C1CCC(N2Cc3c(SCc4ccc(CNC(C5CC5)C5CC5)o4)cccc3C2=O)C(=O)N1` (stereo not drawn) [SIAIS313150, 3-(4-(((5-(((dicyclopropylmethyl)amino)methyl)furan-2-yl)methyl)thio)-1-oxoisoindolin-2-yl)piperidine-2,6-dione], the IC50 is 0.7 ± 0.27 nM.
As for `O=C1CCC(N2Cc3c(SCc4csc(CN5CCOCC5)n4)cccc3C2=O)C(=O)N1` (stereo not drawn) [SIAIS313163, 3-(4-(((2-(morpholinomethyl)thiazol-4-yl)methyl)thio)-1-oxoisoindolin-2-yl)piperidine-2,6-dione], the figure is 9.38 ± 1.37 nM; as for `O=C1CCC(N2Cc3c(SCc4csc(CN5CCCCC5)n4)cccc3C2=O)C(=O)N1` (stereo not drawn) [SIAIS313164, 3-(1-oxo-4-(((2-(piperidin-1-ylmethyl)thiazol-4-yl)methyl)thio)isoindolin-2-yl)piperidine-2,6-dione], 2.78 ± 0.73 nM; as for `O=C1CCC(N2Cc3c(SCc4csc(CN5CCCCCC5)n4)cccc3C2=O)C(=O)N1` (stereo not drawn) [SIAIS313165, 3-(4-(((2-(azepan-1-ylmethyl)thiazol-4-yl)methyl)thio)-1-oxoisoindolin-2-yl)piperidine-2,6-dione], 2.77 ± 1.12 nM.
`O=C1CCC(N2Cc3c(SCc4csc(CNC5CCCC5)n4)cccc3C2=O)C(=O)N1` (stereo not drawn) [SIAIS313166, 3-(4-(((2-((cyclopentylamino)methyl)thiazol-4-yl)methyl)thio)-1-oxoisoindolin-2-yl)piperidine-2,6-dione]: the IC50 was determined as 7.55 ± 1.89 nM.
The figure for `O=C1CCC(N2Cc3c(SCc4nc(CN5CCOCC5)cs4)cccc3C2=O)C(=O)N1` (stereo not drawn) [SIAIS313169, 3-(4-(((4-(morpholinomethyl)thiazol-2-yl)methyl)thio)-1-oxoisoindolin-2-yl)piperidine-2,6-dione] is 5.03 ± 2.13 nM; for `O=C1CCC(N2Cc3c(SCc4nc(CN5CCCCC5)cs4)cccc3C2=O)C(=O)N1` (stereo not drawn) [SIAIS313170, 3-(1-oxo-4-(((4-(piperidin-1-ylmethyl)thiazol-2-yl)methyl)thio)isoindolin-2-yl)piperidine-2,6-dione] it is 2.56 ± 0.56 nM; for `O=C1CCC(N2Cc3c(SCc4nc(CN5CCCCCC5)cs4)cccc3C2=O)C(=O)N1` (stereo not drawn) [SIAIS313171, 3-(4-(((4-(azepan-1-ylmethyl)thiazol-2-yl)methyl)thio)-1-oxoisoindolin-2-yl)piperidine-2,6-dione] it is 1.34 ± 0.32 nM.
As for `CC1CC(C)CN(Cc2csc(CSc3cccc4c3CN(C3CCC(=O)NC3=O)C4=O)n2)C1` (stereo not drawn) [SIAIS313186, 3-(4-(((4-((3,5-dimethylpiperidin-1-yl)methyl)thiazol-2-yl)methyl)thio)-1-oxoisoindolin-2-yl)piperidine-2,6-dione], the figure is 1.63 ± 0.61 nM; as for `O=C1CCC(N2Cc3c(SCc4nc(CN5CC6CCCCC6C5)cs4)cccc3C2=O)C(=O)N1` (stereo not drawn) [SIAIS313188, 3-(4-(((4-((hexahydro-1H-isoindol-2(3H)-yl)methyl)thiazol-2-yl)methyl)thio)-1-oxoisoindolin-2-yl)piperidine-2,6-dione], 1.43 ± 0.3 nM.
As for `O=C1CCC(N2Cc3c(SCc4nc(CN5CCSCC5)cs4)cccc3C2=O)C(=O)N1` (stereo not drawn) [SIAIS355001, 3-(1-oxo-4-(((4-(thiomorpholinomethyl)thiazol-2-yl)methyl)thio)isoindolin-2-yl)piperidine-2,6-dione], the figure is 2.51 ± 0.54 nM.
`CCN(CC)Cc1csc(CSc2cccc3c2CN(C2CCC(=O)NC2=O)C3=O)n1` (stereo not drawn) [SIAIS355002, 3-(4-(((4-((diethylamino)methyl)thiazol-2-yl)methyl)thio)-1-oxoisoindolin-2-yl)piperidine-2,6-dione]: the IC50 stood at 1.07 ± 0.39 nM.
As for `O=C1CCC(N2Cc3c(SCc4nc(CNC5CCCCC5)cs4)cccc3C2=O)C(=O)N1` (stereo not drawn) [SIAIS355003, 3-(4-(((4-((cyclohexylamino)methyl)thiazol-2-yl)methyl)thio)-1-oxoisoindolin-2-yl)piperidine-2,6-dione], the figure is 0.75 ± 0.1 nM.
As for `O=C1CCC(N2Cc3c(SCc4nc(CNCC5CCCCC5)cs4)cccc3C2=O)C(=O)N1` (stereo not drawn) [SIAIS355004, 3-(4-(((4-(((cyclohexylmethyl)amino)methyl)thiazol-2-yl)methyl)thio)-1-oxoisoindolin-2-yl)piperidine-2,6-dione], the figure is 0.61 ± 0.42 nM; as for `CSc1cccc2c1CN(C1CCC(=O)NC1=O)C2=O` (stereo not drawn) [SIAIS1210071, 3-(4-(methylthio)-1-oxoisoindolin-2-yl)piperidine-2,6-dione], 3.37 ± 0.48 nM; as for `CCCCCSc1cccc2c1CN(C1CCC(=O)NC1=O)C2=O` (stereo not drawn) [SIAIS1213195, 3-(1-oxo-4-(pentylthio)isoindolin-2-yl)piperidine-2,6-dione], 1.48 ± 0.06 nM.
With `CCCCCCCCSc1cccc2c1CN(C1CCC(=O)NC1=O)C2=O` (stereo not drawn) [SIAIS1216025, 3-(4-(octylthio)-1-oxoisoindolin-2-yl)piperidine-2,6-dione], the IC50 was found to be 2.1 ± 0.67 nM.
As to `O=C1CCC(N2Cc3c(SCCCCCN4CCOCC4)cccc3C2=O)C(=O)N1` (stereo not drawn) [SIAIS1216061, 3-(4-((5-morpholinopentyl)thio)-1-oxoisoindolin-2-yl)piperidine-2,6-dione], the IC50 was found to be 2.52 ± 0.22 nM.
As for `O=C1CCC(N2Cc3c(SCCCCCN4CCNCC4)cccc3C2=O)C(=O)N1` (stereo not drawn) [SIAIS1216063, 3-(1-oxo-4-((5-(piperazin-1-yl)pentyl)thio)isoindolin-2-yl)piperidine-2,6-dione], the figure is 8.58 ± 2.58 nM.
